Among the data in patent publication US20230159445A1, “STAT INHIBITORY COMPOUNDS AND COMPOSITIONS” (JANPIX LIMITED, priority 2020, published 2023) are IC50 values, retold here.

The test system of the first experiment is MV4-11 cells. Put plainly: MV4-11 Cell Cytotoxicity Assay (CellTiter-Blue, 72 h). Type of experiment: cell-based, human. Particulars: Homo sapiens, MV4-11; MV-4-11 cells. The method, then:
In some embodiments, the potency of the STAT5 inhibitors are evaluated by an in vitro assay such as MV4-11 Cell Cytotoxicity Assay. […] 10,000 cells were plated per well in 96-well flat-bottom sterile culture plates with low-evaporation lids. After 24 h, inhibitors and a vehicle control (0.5% DMSO) were added and the cells were incubated for 72 h at 37° C. in 5% CO2. Inhibitors were examined in triplicate at a maximal concentration of 50 μM, followed by 1:2 dilutions in subsequent wells (25, 12.5, 6.25, 3.125, 1.5625, 0.78125, 0.390625, 0.195313 and 0.097656 μM). After 72 h, the wells were treated with CellTiter-Blue® (20 μL/well), and the plates were incubated using standard cell culture conditions for 1 hour. Fluorescence was measured at 560/590 nm.
For `O=C(O)c1ccc(N(Cc2ccccn2)C(=O)CN(Cc2ccccc2C(F)(F)F)S(=O)(=O)c2c(F)c(F)c(F)c(F)c2F)c(OC2CC2)c1` [Compound 1127, 3-cyclopropoxy-4-(2-(N-(2-(trifluoromethyl)benzyl)-(2,3,4,5,6-pentafluoro-phenyl)sulfonamido)-N-(pyridin-2-ylmethyl)acetamido) benzoic acid], the IC50 is 1000 to 3160 nM.

As to `COc1cc(C(=O)O)ccc1N(Cc1cc(C2CC2)cc(C(C)(C)C)c1)C(=O)CN(Cc1cncc(C(F)(F)F)c1)S(=O)(=O)c1c(F)c(F)c(F)c(F)c1F` [Compound 1131, 4-(N-(3-(tert-butyl)-5-cyclopropylbenzyl)-2-(N-((5-(trifluoromethyl)pyridin-3-yl)methyl)-(2,3,4,5,6-pentafluoro-phenyl)sulfonamido)acetamido)-3-methoxybenzoic acid], the IC50 was in the range of 316 to 1000 nM.

Take `CC(C)(C)c1cc(CN(C(=O)CN(Cc2cccc(C(F)(F)F)c2)S(=O)(=O)c2c(F)c(F)c(F)c(F)c2F)c2ccc(C(=O)O)cc2OC2CC2)cc(C2CC2)c1` [Compound 1135, 4-(N-(3-(tert-butyl)-5-cyclopropylbenzyl)-2-(N-(3-(trifluoromethyl)benzyl)-(2,3,4,5,6-pentafluoro-phenyl)sulfonamido)acetamido)-3-cyclopropoxybenzoic acid]: the IC50 lay within 316 to 1000 nM.

In the case of `O=C(O)c1ccc(N(Cc2cccnn2)C(=O)CN(Cc2ccccc2C(F)(F)F)S(=O)(=O)c2c(F)c(F)c(F)c(F)c2F)c(OC2CC2)c1` [Compound 1138, 3-cyclopropoxy-4-(2-(N-(2-(trifluoromethyl)benzyl)-(2,3,4,5,6-pentafluoro-phenyl)sulfonamido)-N-(pyridazin-3-ylmethyl)acetamido) benzoic acid], the IC50 lay within 3160 to 100000 nM.

`CC(C)(C)c1cc(CN(C(=O)CN(Cc2cccc(C#N)c2)S(=O)(=O)c2c(F)c(F)c(F)c(F)c2F)c2ccc(C(=O)O)cc2OC2CC2)cc(C2CC2)c1` [Compound 1139, 4-(N-(3-(tert-butyl)-5-cyclopropylbenzyl)-2-(N-(3-cyanobenzyl)-(2,3,4,5,6-pentafluorophenyl)sulfon-amido)acetamido)-3-cyclopropoxybenzoic acid] had an IC50 of 316 to 1000 nM.

The compound `CC(C)(C)c1cc(CN(C(=O)CN(Cc2ccc(C#N)cc2)S(=O)(=O)c2c(F)c(F)c(F)c(F)c2F)c2ccc(C(=O)O)cc2OC2CC2)cc(C2CC2)c1` [Compound 1140, 4-(N-(3-(tert-butyl)-5-cyclopropylbenzyl)-2-(N-(4-cyanobenzyl)-(2,3,4,5,6-pentafluorophenyl)sulfon-amido)acetamido)-3-cyclopropoxybenzoic acid] had an IC50 of 316 to 1000 nM.

With `COc1cc(C(=O)O)ccc1N(Cc1cccc(C(C)(C)C)c1)C(=O)CN(C12CC(C1)C2)S(=O)(=O)c1c(F)c(F)c(F)c(F)c1F` [Compound 1144, 4-(2-(N-(bicyclo[1.1.1]pentan-1-yl)-(2,3,4,5,6-pentafluorophenyl)sulfon-amido)-N-(3-(tert-butyl)benzyl)acetamido)-3-methoxybenzoic acid], the IC50 is 316 to 1000 nM.

With `CC(C)(C)c1cc(CN(C(=O)CN(Cc2ccccc2F)S(=O)(=O)c2c(F)c(F)c(F)c(F)c2F)c2ccc(C#N)c(F)c2)cc(C2CC2)c1` [Compound 1151, N-(3-(tert-butyl)-5-cyclopropylbenzyl)-N-(4-cyano-3-fluorophenyl)-2-(N-(2-fluorobenzyl)-(2,3,4,5,6-pentafluoro-phenyl)sulfonamido) acetamide], the IC50 lay in the range of 3160 to 100000 nM.

As for `COc1cc(C(=O)O)ccc1N(Cc1nc2ccccc2n1C)C(=O)CN(Cc1cnccc1C(F)(F)F)S(=O)(=O)c1c(F)c(F)c(F)c(F)c1F` [Compound 1158, 3-methoxy-4-(N-((1-methyl-1H-benzo[d]imidazol-2-yl)methyl)-2-(N-((4-(trifluoromethyl)pyridin-3-yl)methyl)-(2,3,4,5,6-pentafluoro-phenyl)sulfonamido)acetamido)benzoic acid], the IC50 lay in the range of 3160 to 100000 nM.

Turning to `COc1cc(C(=O)O)ccc1N(Cc1cc(C2CC2)cc(C(C)(C)C)c1)C(=O)CN(Cc1ccc(Cl)cc1F)S(=O)(=O)c1c(F)c(F)c(F)c(F)c1F` [Compound 1175, 4-(N-(3-(tert-butyl)-5-cyclopropylbenzyl)-2-(N-(4-chloro-2-fluorobenzyl)-(2,3,4,5,6-pentafluorophenyl)sulfon-amido)acetamido)-3-methoxybenzoic acid], the IC50 is 316 to 1000 nM.

Compound `Cc1cc(C(=O)O)cc(C)c1N(Cc1cc(C2CC2)cc(C(C)(C)C)c1)C(=O)CN(Cc1cnccc1C(F)(F)F)S(=O)(=O)c1c(F)c(F)c(F)c(F)c1F` [Compound 1181, 4-(N-(3-(tert-butyl)-5-cyclopropylbenzyl)-2-(N-((4-(trifluoromethyl)pyridin-3-yl)methyl)-(2,3,4,5,6-pentafluoro-phenyl)sulfonamido)acetamido)-3,5-dimethylbenzoic acid] returned an IC50 of 316 to 1000 nM.

`Cc1cc(C(=O)O)cc(C)c1N(Cc1cc(C2CC2)cc(C(C)(C)C)c1)C(=O)CN(Cc1ccc(F)cc1Cl)S(=O)(=O)c1c(F)c(F)c(F)c(F)c1F` [Compound 1187, 4-(N-(3-(tert-butyl)-5-cyclopropylbenzyl)-2-(N-(2-chloro-4-fluorobenzyl)-(2,3,4,5,6-pentafluorophenyl)sulfon-amido)acetamido)-3,5-dimethylbenzoic acid] gave an IC50 of 316 to 1000 nM.

In the case of `Cc1cc(C(=O)O)cc(C)c1N(Cc1cc(C2CC2)cc(C2CC2)c1)C(=O)CN(Cc1cnccc1C(F)(F)F)S(=O)(=O)c1c(F)c(F)c(F)c(F)c1F` [Compound 1202, 4-(N-(3,5-dicyclopropylbenzyl)-2-(N-((4-(trifluoromethyl)pyridin-3-yl)methyl)-(2,3,4,5,6-pentafluoro-phenyl)sulfonamido)acetamido)-3,5-dimethylbenzoic acid], the IC50 fell in the range of 316 to 1000 nM.

In turn, `Cc1cc(C(=O)O)cc(C)c1N(Cc1cc(C2CC2)cc(N2CCCC2)c1)C(=O)CN(Cc1c(F)cc(F)cc1F)S(=O)(=O)c1c(F)c(F)c(F)c(F)c1F` [Compound 1205, 4-(N-(3-cyclopropyl-5-(pyrrolidin-1-yl)benzyl)-2-(N-(2,4,6-trifluorobenzyl)-(2,3,4,5,6-pentafluoro-phenyl)sulfonamido)acetamido)-3,5-dimethylbenzoic acid] returned an IC50 of 316 to 1000 nM.

In the case of `Cc1cc(C(=O)O)cc(C)c1N(Cc1cc(C2CC2)cc(N2CCCC2)c1)C(=O)CN(Cc1ccc(F)cc1Cl)S(=O)(=O)c1c(F)c(F)c(F)c(F)c1F` [Compound 1206, 4-(2-(N-(2-chloro-4-fluorobenzyl)-(2,3,4,5,6-pentafluorophenyl)sulfon-amido)-N-(3-cyclopropyl-5-(pyrrolidin-1-yl)benzyl)acetamido)-3,5-dimethylbenzoic acid], the IC50 is 316 to 1000 nM.

In turn, `CC(C)(C)c1cc(CN(C(=O)CN(Cc2ccc(F)cc2Cl)S(=O)(=O)c2c(F)c(F)c(F)c(F)c2F)c2ccc(C(=O)O)c(C(F)(F)F)c2)cc(C2CC2)c1` [Compound 1229, 4-(N-(3-(tert-butyl)-5-cyclopropylbenzyl)-2-(N-(2-chloro-4-fluorobenzyl)-(2,3,4,5,6-pentafluorophenyl)sulfon-amido)acetamido)-2-(trifluoromethyl) benzoic acid] showed an IC50 of 1000 to 3160 nM.

The same experiment, now with this note: Homo sapiens; MV4-11 cells, 72 h, CellTiter-Blue; read-out: IC50- MV-4-11.
On to `CC(C)(C)c1cc(N(C(=O)CN(Cc2ccc(Cl)cc2)S(=O)(=O)c2c(F)c(F)c(F)c(F)c2F)c2ccc(C(=O)O)cc2)cc(C(C)(C)C)c1` [Compound 2002, 4-(2-(N-(4-chlorobenzyl)-(2,3,4,5,6-pentafluorophenyl)sulfon-amido)-N-(3,5-di-tert-butylphenyl)acetamido)ben-zoic acid], for which the IC50 fell in the range of 316 to 1000 nM.

As to `CC(C)(C)c1cc(CN(C(=O)CN(Cc2ccccc2)S(=O)(=O)c2c(F)c(F)c(F)c(F)c2F)c2ccc(C(=O)O)c(O)c2)cc(C(C)(C)C)c1` [Compound 2003, 4-(2-(N-benzyl-(2,3,4,5,6-pentafluorophenyl)sulfon-amido)-N-(3,5-di-tert-butylbenzyl)acetamido)-2-hydroxybenzoic acid], the IC50 was in the range of 1000 to 3160 nM.

Regarding `CC(C)(C)c1cc(C(=O)N(CCN(Cc2ccc(Cl)cc2)S(=O)(=O)c2c(F)c(F)c(F)c(F)c2F)c2ccc(C(=O)O)cc2)cc(C(C)(C)C)c1` [Compound 2005, 4-(3,5-di-tert-butyl-N-(2-(N-(4-chlorobenzyl)-(2,3,4,5,6-pentafluorophenyl)sulfon-amido)ethyl)benzamido)ben-zoic acid], the IC50 lay in the range of 316 to 1000 nM.

Consider `O=C(O)c1ccc(N(Cc2ccc3c(c2)OCCO3)C(=O)CN(Cc2ccc(Cl)cc2)S(=O)(=O)c2c(F)c(F)c(F)c(F)c2F)cc1O` [Compound 2006, 4-(2-(N-(4-chlorobenzyl)-(2,3,4,5,6-pentafluorophenyl)sulfon-amido)-N-((2,3-dihydrobenzo[b][1,4]dioxin-6-yl)methyl)acetamido)-2-hydroxybenzoic acid], for which the IC50 was 3160 to 100000 nM.

With `CC(C)COc1cc(CN(C(=O)CN(Cc2ccc(Cl)cc2)S(=O)(=O)c2c(F)c(F)c(F)c(F)c2F)c2ccc(C(=O)O)c(O)c2)cc(OCC(C)C)c1` [Compound 2007, 4-(2-(N-(4-chlorobenzyl)-(2,3,4,5,6-pentafluorophenyl)sulfon-amido)-N-(3,5-diisobutoxybenzyl)acetami-do)-2-hydroxybenzoic acid], the IC50 fell in the range of 3160 to 100000 nM.

The experiment is the same for the next values; noted with them: MV-4-11 cells.
With `COc1cc(C(=O)O)ccc1N(Cc1cc(C2CC2)cc(C2CC2)c1)C(=O)CN(Cc1ncc(F)cc1Cl)S(=O)(=O)c1c(F)c(F)c(F)c(F)c1F` [Compound 1176, 4-(2-(N-((3-chloro-5-fluoropyridin-2-yl)methyl)-(2,3,4,5,6-pentafluorophenyl)sulfon-amido)-N-(3,5-dicyclopropylbenzyl)acetamido)-3-methoxybenzoic acid], the IC50 lay within 0.01 to 316 nM.
